Columns and labels:
clinical [1] = type: in vivo, human; conditions: human, in vivo
Description: (§1) • Protocol AMX3500: sparse sampling in 87 subjects with ALS. Approximately 2 samples are collected for each subject, 1 or 4 hours post dose following 12 and 24 weeks of treatment. • Protocol A35-002: rich sampling in 14 healthy adults. Approximately 21 samples are collected over 24 hours for each subject on two occasions, once following a high fat meal and the other under fasting conditions.
A total of 14 healthy subjects were enrolled in order to have no fewer than 12 subjects complete. A predefined mix of gender was selected.
Each study period followed the same study design (FIG. 1). Subjects were screened for inclusion in the study up to 28 days before dosing. Subjects were admitted to the clinical unit during Study Day −2 for Period 1 and Day −1 for Period 2 and were dosed in the morning of Day 1. On the night prior to Period 1 the subjects in the fasted/fed or fed/fasted sequence were fasted for a minimum of 10 h prior to dosing.
The solution was stirred until the powder was mostly dissolved.
Any departures from the intended regimen were recorded in the eCRFs. All dose administrations were performed in the study center under the supervision of appropriately trained staff.
Subjects were provided with a light snack and were then fasted from all food and drink (except water) until the following morning, when they were provided with a high-fat breakfast. The breakfast was consumed over a maximum period of 25 min, and dosing occurred 30 min after the start of breakfast. Subjects were encouraged to eat their meal evenly over the 25 min period. For this trial the subject was deemed compliant if they consumed >80% of the high-fat standard breakfast.
The subjects in the 24-h baseline and in the fasted condition Period remained fasted up to 4 h post-dose and were offered a standardized meal to be taken between 4.00 and 5.00 h post-dose. Subjects in the fed condition were fasted overnight and received a high-fat standard breakfast 30 minutes pre-dose and then remained fasted for 4.00 to 5.00 h post-dose when they received a standardized meal.
Venous blood samples were withdrawn via an indwelling cannula or by venipuncture according to the time schedule presented in Table 5 Table, Table 6, and Table 7.
Blood samples of approximately 4 mL were collected into 4 mL BD Vacutainer Plastic K2EDTA Tubes with Lavender Hemogard Closure, and was gently inverted approximately 8 times. The tubes were then immediately stored on ice and processed within 60 min of collection by centrifugation at 1500 g for 10 min at 2 to 8° C. The resultant plasma was separated equally into 2 aliquots and transferred to 2 mL appropriately labelled primary and backup polypropylene cryovials.
Actual elapsed time from dosing was to be used for the final plasma PK parameter calculations after database lock.

clinical [2] = type: in vivo, human; conditions: human, in vivo; for concentration at 1 h / concentration at 4 h: both sexes
Description: • 1. […] Treatment is administered as one sachet daily for the initial 3 weeks and then increased if tolerated to one sachet twice daily. […] Sampling times are randomly assigned to occur at either 1 or 4 hours post-dose at the 12 week visit and the other time at the 24 week visit. • Treatment duration: 24 weeks • 2.
as §1
Subjects were advised to take the drug before a meal. […] Referred to as protocol 3500.
A study was carried out to examine plasma concentration data in various subgroups for the protocol AMX3500 Phase 2 study. This example summarizes plasma concentrations of TUDCA and 2 metabolites, also related acids, UDCA, the de-conjugated TUDCA metabolite, and GUDCA, the glycine conjugate of UDCA.
For each of the 2 treatment arms (treatment and placebo), subjects were further divided into 2 sample sequence groups for schedule of pharmacokinetic measurements: • 1. 1 hour post-dose for the Week 12 visit and 4 hours post-dose for the Week 24 visit • 2. 4 hours post-dose for the Week 12 visit and 1 hour post-dose for the Week 24 visit
Twenty-four distinct medication descriptions were identified as containing antibiotics. Dates of antibiotic use were compared to dates of visits and if the antibiotic use date range contained the visit date, then that visit was flagged for that subject's data for antibiotic use. […] These antibiotics could hypothetically be in a subject's body still if this event occurred. However, it was observed that only a small number of subjects took antibiotics near to visit dates but not overlapping visit dates. In other cases, subjects were taking antibiotics on the date of one visit but not the others. Some subjects are therefore in both categories of antibiotic use and nonuse, though no individual visits for a subject are counted in both categories at the same time.
Subjects whose race were recorded as “Black” or “African American” were evaluated according to the standard Glomerular Filtration Rate (eGFR) rating for that race. The other standard eGFR rating used, sometimes referred to as a standard for people who are White, was applied to subjects of all other races. These rates were analyzed as continuous in mL/min/1.73 m2 units and as the following categories: • 1. Less than 90 mL/min/1.73 m^2 • 2. Equal to or greater than 90 mL/min/1.73 m^2
Age was converted from a continuous variable to 2 categories: • 1. As old or older than 65 years old • 2. Younger than 65 years old
All boxplots boxes are bounded at the 25th and 75th percentile, with whiskers at 10th and 90th percentiles, outliers beyond that as points, the black line as median, and red line as mean.

[3] = Population pharmacokinetic model and simulations of PB and PAA (healthy subjects and ALS patients); design: species or system human; conditions: for Cmax, Mean: from individual Bayesian (post hoc) parameter estimates; for Cmax, 2.5th percentile / Cmax, 97.5th percentile / Cmax, Geometric mean / Cmax, Median: post hoc Bayesian estimates; for CL/F, apparent (oral) metabolic clearance of phenylbutyrate to phenylacetate / Ka, PB oral absorption rate constant under fasting conditions / Ka, oral absorption rate constant when phenylbutyrate is administered with food / V/F, apparent volume of distribution of phenylbutyrate: population PK
Excerpt: The order of administration with and without food was randomly assigned. […] Subjects were advised to take the drug before a meal. […] No inter-occasion variability (IOV) was included.

[4] = Plasma protein binding in vitro; type: in vitro ADME; conditions: plasma, co-administered in vitro
[5] = within 24 hours; cited from earlier work
Plasma protein = Plasma protein binding in vitro; type: in vitro ADME; conditions: co-administered in vitro
human hepatocytes = test: Metabolites in hepatocytes in vitro; type: in vitro ADME
[6] = both sexes, elimination half-lives (range)
[7] = Steady-state plasma concentration

O=C(O)CCCc1ccccc1 [PB, sodium phenylbutyrate]
half-life (clinical [1]; both sexes, T1/2): 27.6 min | Tmax (clinical [1]; both sexes, Tmax): 0.5 h | Tmax (clinical [1]; both sexes, Tmax Median): 0.5 h | half-life (clinical [1]; [6]): 24 to 42.6 min | Cmax (clinical [1]; both sexes, mean Cmax): 188000 ng/mL | Cmax (clinical [1]; both sexes, po, Cmax): 188000 ng/mL | AUC(0-inf) Adj Geo Mean (clinical [1]; both): 261 µg·h/mL | AUC(0-last), Adj Geo Mean (clinical [1]; both): 241 µg·h/mL | Cmax, Adj Geo Mean (clinical [1]; both): 191 µg/mL | Tmax (clinical [1]; both): 0.25 h | concentrations remained quantifiable until (clinical [1]; both): 3.00 to 5.00 h | decrease in AUC with high-fat, high-calorie meal (clinical [1]; both): 55% | time at which plasma concentrations typically peaked (clinical [1]; both): 0.5 to 1 h | time by which eliminated from systemic circulation (clinical [1]; both): ≤ 6 h | time by which plasma concentrations fell below LLOQ (clinical [1]; both): 4 to 5 h | time from which plasma concentrations were evident (clinical [1]; both): 0.25 h | time of maximum plasma concentrations (range) (clinical [1]; both): 0.25 to 0.50 h | median time to Cmax (clinical [1]): 1 h | accumulation in plasma after once- or twice-daily dosing (clinical [2]): no accumulation | effect of age on pharmacokinetics ([3]; ALS patients aged 65-76 versus less than 65 years, model-based analysis): no significant difference | Cmax, Mean ([3]; ALS patients, Fasting): 131 µg/mL | Cmax, 2.5th percentile ([3]; ALS patients, Fasting): 10.3 µg/mL | Cmax, 97.5th percentile ([3]; ALS patients, Fasting): 414 µg/mL | Cmax, Geometric mean ([3]; ALS patients, Fasting): 90.9 µg/mL | Cmax, Median ([3]; ALS patients, Fasting): 97.9 µg/mL | Cmax, Mean ([3]; ALS patients, Fed): 48.4 µg/mL | Cmax, 2.5th percentile ([3]; ALS patients, Fed): 8.74 µg/mL | Cmax, 97.5th percentile ([3]; ALS patients, Fed): 112 µg/mL | Cmax, Geometric mean ([3]; ALS patients, Fed): 39.4 µg/mL | Cmax, Median ([3]; ALS patients, Fed): 43.9 µg/mL | estimated steady-state mean Cmax ([3]; ALS patients, based on population PK): 131 µg/mL | terminal elimination half-life ([3]; based on typical values for CLPB/F and VPB/F): 27 min | effect of mild renal insufficiency on pharmacokinetics ([3]; eGFR greater than 60 mL/min, model-based analysis): no significant correlation | decrease in Ka, fed versus fasting ([3]; final model projection): 60% | relationship between exposure and body weight ([3]; population PK analysis): not appreciably affected by body weight | CL/F, apparent (oral) metabolic clearance of phenylbutyrate to phenylacetate ([3]; Bootstrap Median): 14.7 L/h | Ka, PB oral absorption rate constant under fasting conditions ([3]; Bootstrap Median): 1.96 | Ka, oral absorption rate constant when phenylbutyrate is administered with food ([3]; Bootstrap Median): 0.779 | V/F, apparent volume of distribution of phenylbutyrate ([3]; Bootstrap Median): 9.7 L | CL/F, apparent (oral) metabolic clearance of phenylbutyrate to phenylacetate ([3]; Final Model mean estimate): 14.8 L/h | Ka, PB oral absorption rate constant under fasting conditions ([3]; Final Model mean estimate): 1.92 | Ka, oral absorption rate constant when phenylbutyrate is administered with food ([3]; Final Model mean estimate): 0.767 | V/F, apparent volume of distribution of phenylbutyrate ([3]; Final Model mean estimate): 9.6 L | fraction unbound [4]: 0.18 | fraction excreted in the urine as phenylacetylglutamine [5]: 80-100%

C[C@H](CCC(=O)NCCS(=O)(=O)O)[C@H]1CC[C@H]2[C@@H]3[C@@H](O)C[C@@H]4C[C@H](O)CC[C@]4(C)[C@H]3CC[C@]12C [TURSO, taurursodiol]
AUC(0-inf) (clinical [1]; both sexes, AUC(0-inf)): 3910 ng·h/mL | AUC(0-t) (clinical [1]; both sexes, AUC(0-last)): 4360 ng·h/mL | Cmax (clinical [1]; both sexes, Cmax): 741 ng/mL | half-life (clinical [1]; both sexes, T1/2): 260 min | Tmax (clinical [1]; both sexes, Tmax): 4.5 h | Tmax (clinical [1]; both sexes, Tmax Median): 4.5 h | Vd/F (clinical [1]; both sexes, Vz/F): 1600 L | half-life (clinical [1]; [6]): 151 to 523 min | Cmax (clinical [1]; both sexes, mean Cmax): 871 ng/mL | Cmax (clinical [1]; both sexes, po, Cmax): 741 ng/mL | Tmax (clinical [1]; both sexes, po, Tmax, Median): 4.5 h | AUG(0-last) (clinical [1]; both): 4360 (79.4) ng.h/ml | Tmax (clinical [1]; both): 10.00 h | increase in exposure (AUC) with high-fat, high-calorie meal (clinical [1]; both): 46% | time of maximum plasma concentrations (range) (clinical [1]; both): 1.50 to 10.00 h | AUC(0-last), Adj Geo Mean (clinical [1]; both, po): 4.46 µg·h/mL | Cmax, Adj Geo Mean (clinical [1]; both, po): 0.755 µg/mL | median time to Cmax (clinical [1]): 4.5 h | concentration at 1 h (clinical [2]; Plasma Concentration, Mean): 503 ng/mL | concentration at 4 h (clinical [2]; Plasma Concentration, Mean): 636 ng/mL | concentration at 1 h (clinical [2]; Plasma Concentration, Median): 248 ng/mL | concentration at 4 h (clinical [2]; Plasma Concentration, Median): 446 ng/mL | concentration at 1 h (clinical [2]; [7]): 448 ng/mL | concentration at 4 h (clinical [2]; [7]): 566 ng/mL | Plasma Concentration, Median (clinical [2]; both): 20.0 ng/mL | Plasma Concentration, Min (clinical [2]; both): 20.0 ng/mL | steady state reached by (clinical [2]; both): ≤ 12 Week | Plasma Concentration, Min (clinical [2]; both, 1 h): 20.0 ng/mL | Plasma Concentration, Min (clinical [2]; both, 4 h): 20.0 ng/mL | accumulation in plasma after once- or twice-daily dosing (clinical [2]): little accumulation | effect of age on steady-state plasma concentration (clinical [2]): no difference | effect of mild renal insufficiency on steady-state plasma concentration (clinical [2]): no discernible difference | steady-state plasma concentrations versus endogenous levels (clinical [2]): at least an order of magnitude higher than endogenous levels | fraction unbound [4]: 0.02 | Plasma protein binding (Plasma protein): ~99% | metabolites detected in human hepatocytes versus rat and minipig hepatocytes (human hepatocytes): also detected in rat and minipig hepatocytes

— patent publication US20230372263A1, “METHODS AND COMPOSITIONS FOR TREATING AMYOTROPHIC LATERAL SCLEROSIS” (Amylyx Pharmaceuticals, Inc., priority 2022, published 2023)
